Assay results published in publication PMC12691742, “Anti-Cancer Outcome of Glucocorticoid Receptor Transrepression by Synephrine Derivatives in Hematological Malignancies” (International Journal of Molecular Sciences, 2025).
Entries after “also recorded” stand apart in the source; their conditions may differ.

Assays:
Granta cells = test: Cell cycle analysis by PI flow cytometry in Granta cells; assay type: cell-based; conditions: 24 h, 10S-E2 6.25 µM
Protocol: Figure 5 Pro-apoptotic and anti-cancer effects of synephrine derivatives in vitro and in vivo. (A) Effect of 4S-C2, 8S-E3, 10S-E2, and 13S-G2 on cell cycle progression in K562 and Granta cells after 24 h of incubation. The cells were fixed with ethanol, stained with propidium iodide, and analyzed using flow cytometry. Statistically significant difference compared to control: *—p < 0.05, **—p < 0.01 (n = 3). (B) In vivo anti-cancer activity was evaluated using the transplantable P388 murine lymphoma model. […] Tumor nodule size was measured twice a week using digital calipers. Statistically significant differences compared to the control: * p < 0.05, ** p < 0.01.
The distribution of cells by cell cycle phases was evaluated using propidium iodide (PI) staining, as described in [19]. […] After incubation, the cells were resuspended in 70% ethanol and fixed for 2h at 4 °C. Cells were then washed twice with cold PBS, pH 7.4, and stained with 500 µL of cold propidium iodide (PI) solution (50 µg/mL PI, 1% Triton X-100, and 100 µg/mL RNase A in PBS). The cell cycle distribution of cells in samples was analyzed using an FACSCalibur Flow Cytometer (“BD Biosciences”, San Jose, CA, USA). The experiments were performed in triplicate.

[1] = system: GR phosphorylated by Ser211 in K562 and Granta cells; test: Western blot of nuclear phospho-GR (Ser211); assay type: cell-based; conditions: 10 h; Dex 10 µM, 4S-C2 50 µM, 8S-E3 50 µM, 10S-E2 15 µM, 13S-G2 25 µM
Protocol: Figure 3 Effects of synephrine derivatives on GR transactivation in Granta lymphoma and K562 leukemia cells. (A) Q-PCR analysis of FKBP51, GILZ, and DDIT4 mRNA expression in K562 and Granta cells. […] The Q-PCR results were normalized to the expression of the housekeeping gene RPL27 and are presented as fold changes compared to the control. The mean ± SD was calculated for three individual samples/condition (n = 3). Statistically significant differences compared to the control: * p < 0.05, ** p < 0.01. (B) The levels of the nuclear fraction of phospho-GR (Ser211) were determined using Western blot analysis (n = 3; characteristic images are presented in the figure). Histone H3 was used as a loading control.
Western blot analysis was performed as previously described. Proteins were resolved using SDS-PAGE. Membranes were blocked with 5% nonfat milk solution and then incubated with primary antibodies against phosphorylated GR (pGR, Ser211) (“Santa Cruz Biotechnology”, Santa Cruz, CA, USA) overnight at 4 °C. To verify equal protein loading and adequate transfer, the membranes were probed with Histone H3 antibodies (“Cell Signaling”, Boston, MA, USA). Goat anti-rabbit IgGs (“Jackson Immuno Research”, West Grove, PA, USA) were used as secondary antibodies. Signals were detected using ECL reagent and an ImageQuant LAS4000 system (“GE HealthCare”, Chicago, IL, USA). ImageJ 1.54h software was used for densitometry. The experiments were performed in triplicate.
7 K562, pGR nuclear 5 Granta, pGR nuclear
Supplementary Figure S 22. Quantification of Western blot analysis. K562 and Granta cells […]
μM) and 13S-G2 (25 μ M) for 10 h. Quantification of Western blot anal ysis of p- GR protein levels was done usin g Im a ge J f ree so ftwar e. Statisticall y significant diff eren ces as compared to control: […]

BALB/c female mice = test: Glucocorticoid-induced osteoporosis model: bone and skin morphometry, body weight; assay type: in vivo; conditions: Dex 20 mg/kg
From the text: (A) H&E bone staining and quantification of cortical bone thickness. (B) Q-PCR analysis of Rankl, Mmp9, Tsc2, Trap, and Bglap mRNA expression in bone tissue. […] (C) H&E skin staining and quantification of dermal adipose thickness (50 images per treatment group of 10 animals). Statistically significant differences compared to the control: * p < 0.05, ** p < 0.01.
The protocol for the experiment was approved by the local N.N. Blokhin National Medical Research Center Ethics Committee and corresponded to the guidelines for the welfare and use of animals in cancer research adopted by The United Kingdom Coordinating Committee on Cancer Prevention Research. […] Body weight was recorded twice a week for toxicity control.
Bone and skin samples from the GIOP experiment were fixed in formaldehyde and embedded in paraffin, and sections were stained with hematoxylin and eosin. After formaldehyde fixation, the bone samples were decalcified in decalcification buffer (0.5 M EDTA, 0.7 mM NaOH, pH7.0) for 14 days, washed twice with PBS, and further processed according to the standard histology protocol. The dermal adipose and bone thickness were quantified in sections stained with hematoxylin and eosin. At least five individual fields per slide of each sample/treatment (at least 50 images/treatment group) were analyzed using Axioplan2 microscope software (“Carl Zeiss”, Jena, Germany). The dermal adipose or bone thickness in treated animals is presented as a percentage of the control animals.

[2] = i.p. every 24 h for 5 weeks, 10S-E2 10 mg/kg

Compound: CCCCCCNCC(O)c1ccc(OCc2ccccc2)cc1 (stereo not drawn) [10S-E2, 1-[4-(benzyloxy)phenyl]-2-(hexylamino)ethanol]
- number of cells in the G1 phase (Granta cells): decrease in the number of cells in the G1 phase
- GR phosphorylation level at Ser211 [1]: did not affect the phosphorylation
- animal body weight vs control (BALB/c female mice; GIOP study, 10S-E2 10 mg/kg i.p. every 24 h for 5 weeks): no statisticall y si gnificant differences; also recorded: similar
- loss of cortical bone thickness (BALB/c female mice; [2]): did not cause any loss
- reduction of dermal adipose tissue / skin atrophy (BALB/c female mice; [2]): preserved the skin architecture
